{
  "source": "patent US20250312349A1",
  "about": "“COMPOSITION AND METHODS OF TREATING INTRACELLULAR PATHOGEN INFECTION” (UNIVERSITY HOSPITALS CLEVELAND MEDICAL CENTER, priority 2024, published 2025)",
  "key": {"LC3": {"tested_on": "LC3", "test": "Immunofluorescence of LC3 accumulation around parasites", "type": "cell-based", "settings": "CHO cells and brain endothelial cells expressing DN EGFR, 1 μM, 5 hours", "description": "(§1) FIGS. 3(A-L) illustrate images and graphs showing T. gondii killing induced by Src inhibition is mediated by autophagy. (A-C) CHO cells and primary brain endothelial cells expressing WT or DN EGFR were infected with RFP-T. gondii and treated with Saracatinib 1 μM for 5 hours before staining with an anti-LC3 antibody. Accumulation of LC3 around the parasites was assessed by confocal microscopy. Scale bar, 10 μm. (D-F) CHO cells and primary brain endothelial cells expressing WT or DN EGFR were infected with RFP-T. gondii and treated with Saracatinib 1 μM for 7 hours before staining with anti-LAMP1 antibody. Accumulation of LAMP1 around parasites was assessed as above. G-I) CHO cells and primary brain endothelial cells expressing WT or DN EGFR were transfected with control siRNA or ULK1 siRNA. Relative density of ULK1 was normalized to total Actin followed by normalization relative to Ctr siRNA. […] Cells were treated with or without Saracatinib and infected with RH T. gondii. Monolayers were examined at 24 h. […]\n(§2) Mammalian cells were infected with RFP-T. gondii (RH) and fixed with 4% paraformaldehyde. […] LC3 and LAMP1 were evaluated for accumulation at 5- and 7 hours post-infection, respectively. […] Parasites were evaluated blindly in multiple random fields of view and 100 parasites were examined per group. […]"}, "PTEN [1]": {"tested_on": "PTEN", "test": "Confocal microscopy of PTEN and GRA7 around parasites in CHO cells", "type": "cell-based, Chinese Hamster", "settings": "RFP-T. gondii", "description": "Mammalian cells were infected with RFP-T. gondii (RH) and fixed with 4% paraformaldehyde. Cells were stained with antibodies against LC3 (MBL International, Woburn, MA), LAMP1 (DSHB, Iowa City, IA), or GRA7 (gift from John Boothroyd, Stanford University, Stanford, CA) followed by a fluorescently conjugated secondary antibodies (Jackson ImmunoResearch Laboratories, West Grove, PA). LC3 and LAMP1 were evaluated for accumulation at 5- and 7 hours post-infection, respectively. Cells were stained with antibodies against PTEN (Santa Cruz Biotechnology, Dallas, TX) or anti-phospho S473 Akt (Novus, Centennial, CO). Frozen brain sections were stained with antibodies against PTEN (Novus, Centennial, CO), phospho S473 Akt, SAG-1 (Invitrogen, Waltham, MA) or T. gondii (Biogenex, Fremont, CA). Parasites were evaluated blindly in multiple random fields of view and 100 parasites were examined per group. In-out assays were performed as described using RFP-T gondii, anti-SAG-1 antibody (Invitrogen, Waltham, MA) and an Alexa Fluor 488-conjugated secondary antibody. Olympus FV1200 confocal microscope (Evident/Olympus, Waltham, MA) equipped with UPlanSApa 60× and 100× 1.45NA objectives was used to evaluate the slides."}, "LAMP1": {"tested_on": "LAMP1", "test": "Immunofluorescence of LAMP1 accumulation around parasites", "type": "cell-based", "settings": "CHO cells and brain endothelial cells, 1 μM, 7 hours", "description": "as §1, §2"}, "PI3K": {"tested_on": "PI3K", "test": "Immunoblot of phospho-Y199 PI3K in T. gondii-infected CHO cells", "type": "cell-based, Chinese Hamster", "settings": "lysates at 2 h", "description": "(§3) Membranes were probed with antibodies against Src, phospho-Y416 Src, Akt, phospho-S473 Akt, PTEN, phospho-[…] PTEN, PI3K, phospho-Y458/Y199 PI3K, ULK1, EGFR, HA tag (all from Cell Signaling, Danvers, MA), phospho-Y240 PTEN (Sigma) and Actin (Santa Cruz Biotechnologies) followed by incubation with secondary antibodies (Cell Signaling and Santa Cruz Biotechnologies). Three independent experiments were performed."}, "PTEN [2]": {"tested_on": "PTEN", "test": "Immunoblot of PTEN phosphorylation in T. gondii-infected CHO cells", "type": "cell-based, Chinese Hamster", "settings": "lysates at 2 h", "description": "as §3"}, "[3]": {"test": "Brain penetration and tolerability of Saracatinib", "type": "in vivo", "settings": "mice, 10 or 15 mg kg^-1 twice per day"}, "T. gondii": {"tested_on": "T. gondii", "test": "In vitro infection of mammalian cells with T. gondii tachyzoites, counted by light microscopy", "type": "cell-based, Toxoplasma gondii", "description": "Chinese Hamster Ovary (CHO; a gift from Cathleen Carlin, Case Western Reserve University), human retinal pigment epithelial (RPE) cells (ARPE-19; American Type Culture Collection, ATCC, Manassas, VA), and mouse endothelial […]) transduced with Src shRNA or control encoding lentiviral vectors were cultured in complete media. Mouse brain endothelial cells expressing WT or DN EGFR were isolated as described. Endothelial cells were cultured in medium containing Endothelial Cell Growth Supplement (ECGS; Sigma-Aldrich, St Louis, MO). Mammalian cells were infected with tachyzoites of the RH or PTG stains of T. gondii; RH strain was used unless otherwise indicated. Cells were fixed at 2 hours or 24 hours followed by staining using Hema 3 Manual Staining System (Fisherbrand, Hampton, NH). At least 100 to 200 cells per monolayer were counted by examining a minimum of 5 random areas per monolayer. The percentage of infected cells, tachyzoites and vacuoles per 100 cells, and tachyzoites per vacuole were counted using light microscopy. Three independent experiments were performed. Saracatinib, Gefitinib (LC Laboratories, Woburn, MA) and lysosomal inhibitors leupeptin and pepstatin (10 μM; Millipore Sigma, Burlington, MA) were used in specified experiments. Each cell monolayer was generated and infected independently."}, "ME49 T. gondii": {"tested_on": "ME49 T. gondii", "test": "Ocular and cerebral toxoplasmosis in Dexamethasone-treated mice", "type": "in vivo, C57BL/6 mice", "settings": "10 mg kg-1 twice per day, 2 weeks, vs vehicle"}, "[4]": {"tested_on": "phospho-S473 Akt and PTEN around tachyzoites", "test": "Immunofluorescence of brain sections from infected mice treated for four days", "type": "in vivo, C57BL/6 mice", "settings": "10 mg kg^-1 twice daily for 4 days", "excerpt": "Scale bar, 50 m. […] Scale bar, 50 m. […] (G). […] Results are representative of 2 independent experiments. […] Scale bar, 10 m.\nC57BL/6 mice (Jackson Laboratories, Bar Harbor, ME) or Becn 1^+/− (C57BL/6 background; gift from Beth Levine, University of Texas Southwestern, Dallas, TX) were bred at the Animal Resource Center at Case Western Reserve University. Female mice between the ages of 6 to 8 weeks old were infected with 10 cysts of the ME49 T. gondii for four weeks. In certain experiments, mice were euthanized at 4 weeks to evaluate severity of ocular and cerebral toxoplasmosis."}, "[5]": {"settings": "in vivo; cited from earlier work"}, "[6]": {"settings": "CHO cells transfected with CA Akt, 1 μM, 24 h"}, "[7]": {"settings": "CHO cells transfected with WT Akt, 1 μM, 24 h"}, "[8]": {"settings": "EGFR+ CHO cells, RH T. gondii, indicated concentrations, 24 h"}},
  "data": [
    {"smiles": "CN1CCN(CCOc2cc(OC3CCOCC3)c3c(Nc4c(Cl)ccc5c4OCO5)ncnc3c2)CC1", "note": "[Saracatinib, N-(5-chloro-1,3-benzodioxol-4-yl)-7-(2-(4-methylpiperazin-1-yl)ethoxy)-5-(tetrahydro-2H-pyran-4-yloxy)quinazolin-4-amine]", "values": [
      {"measurement": "accumulation of LC3 around the parasites", "setting": "LC3", "result": "induced accumulation"},
      {"measurement": "association of PTEN to the PVM", "setting": "PTEN [1]", "result": "co-expression of PTEN and GRA7"},
      {"measurement": "accumulation of LAMP1 around intracellular parasites", "setting": "LAMP1", "result": "accumulation of the lysosomal marker, LAMP1, was observed"},
      {"measurement": "Y199 phosphorylation of PI3K", "setting": "PI3K", "result": "inhibited"},
      {"measurement": "PTEN phosphorylation at Tyr240, Ser380 and Thr382/383", "setting": "PTEN [2]", "result": "reduced"},
      {"measurement": "predicted brain concentrations", "setting": "[3]", "result": "~0.2", "unit": "µM"},
      {"measurement": "toxoplasmacidal activity", "setting": "T. gondii; 0.3 μM", "result": "significantly reduced"},
      {"measurement": "toxoplasmacidal activity", "setting": "T. gondii; 1 μM, infected host cells", "result": "kills T. gondii"},
      {"measurement": "toxoplasmacidal activity", "setting": "T. gondii; CHO cells infected with type I (RH) or Type II (PTG) strains, 1 μM, 2 h and 24 h", "result": "toxoplasmacidal activity"},
      {"measurement": "effects on infected cells and tachyzoites per 100 cells compared with Gefitinib", "setting": "T. gondii; CHO cells stably transfected to express EGFR, 24 h", "result": "more striking than the effects of Gefitinib"},
      {"measurement": "number of tachyzoites per 100 cells", "setting": "T. gondii; [6]", "result": "no reduction"},
      {"measurement": "percentage of infection", "setting": "T. gondii; [6]", "result": "no reduction"},
      {"measurement": "number of tachyzoites per 100 cells", "setting": "T. gondii; [7]", "result": "reduced"},
      {"measurement": "percentage of infected cells", "setting": "T. gondii; [7]", "result": "reduced"},
      {"measurement": "parasite replication (tachyzoites per vacuole)", "setting": "T. gondii; CHO cells, 1 μM, 24 hours", "result": "did not affect"},
      {"measurement": "killing of T. gondii in cells made deficient in PTEN", "setting": "T. gondii; CHO cells, PTEN siRNA, 24 h", "result": "no longer able to kill T. gondii"},
      {"measurement": "percentage of infected cells", "setting": "T. gondii; [8]", "result": "dose-dependent significant decrease"},
      {"measurement": "tachyzoites per 100 cells", "setting": "T. gondii; [8]", "result": "dose-dependent significant decrease"},
      {"measurement": "anti-T. gondii activity in ULK1-deficient cells", "setting": "T. gondii; ULK1 siRNA, CHO and brain endothelial cells, 24 h", "result": "unable to exhibit anti-T. gondii activity"},
      {"measurement": "anti-T. gondii activity in presence of Leupeptin and Pepstatin A", "setting": "T. gondii; lysosomal inhibitors 10 μM added post-infection", "result": "ablated"},
      {"measurement": "toxoplasmacidal activity in cells made deficient in Src", "setting": "T. gondii; mHEVc cells transduced with Src shRNA, 1 μM", "result": "no toxoplasmacidal activity was detected"},
      {"measurement": "histopathology in the eye and brain", "setting": "ME49 T. gondii", "result": "significantly reduced"},
      {"measurement": "parasite load in the eye and brain", "setting": "ME49 T. gondii", "result": "significantly reduced"},
      {"measurement": "phospho-S473 Akt accumulation around tachyzoites", "setting": "[4]", "result": "markedly reduced"},
      {"measurement": "recruitment of PTEN around tachyzoites", "setting": "[4]", "result": "induced recruitment"},
      {"measurement": "blood-brain barrier penetration", "setting": "[5]", "result": "penetrates the blood-brain barrier"},
      {"measurement": "tolerability", "setting": "[5]", "result": "well-tolerated"}
    ]}
  ]
}
